Measured values taken from patent US6884798B2, “Fungicidal agent combinations” (Bayer CropScience AG, priority 2000, dated 2005).

Tested on: Sphaerotheca pannosa
Assay: Sphaerotheca test roses/curative
Assay type: in vivo, Sphaerotheca pannosa on roses
Conditions: infected roses sprayed three times at 7-day intervals; application rate 100 g/ha
Experimental: To produce a suitable preparation of active compound, a commercial formulation of active compound or active compound combination is mixed with water until the desired concentration is reached.
To test for curative activity, roses infected with Sphaerotheca pannosa are sprayed three times, at intervals of in each case 7 days, with the preparation of active compound at the stated application rate. The plants are placed in a greenhouse at temperatures between 15° C. and 23° C. and a relative atmospheric humidity of about 70%.
Evaluation is carried out 10 or 20 days after the third treatment. 0% means an efficacy which corresponds to that of the control, whereas an efficacy of 100% means that no infection is observed.

## CC(C)(C)C(O)(CCc1ccc(Cl)cc1)Cn1cncn1 (centres unmarked) [tebuconazoles, tebuconazole]
  Efficacy in % 10 days after the third treatment: 28.6%
  Efficacy in % 20 days after the third treatment: 26.6%
